Test results from ChEMBL document CHEMBL5244207, “Phenanthrenes: A Promising Group of Plant Secondary Metabolites” (J Nat Prod, 2018).
In brackets after ≈: the same amount, converted by molar mass. Several values for one entry are separate records, joined by “and”; a condition that tells them apart may be missing. Identical values can stand only once.

Legend:
[1] = Antioxidant activity assessed as DPPH radical scavenging activity; format: functional
K562 [2] = assay: Induction of cell cycle arrest in human K562 cells measured for 24 hrs; format: functional, cell-based; conditions: K562, 24 h
PC-3 = assay: Induction of cell cycle arrest in human PC-3 cells measured for 24 hrs; format: functional, cell-based; conditions: PC-3, 24 h
BV-2 = assay: Antiinflammatory activity in mouse BV2 cells assessed as reduction in LPS-induced nitric oxide production; format: functional, cell-based
HaCaT = assay: Antiinflammatory activity against human HaCaT cells assessed as inhibition of PGE2 production; format: functional, cell-based
[3] = Antioxidant activity assessed as hydrogen peroxide scavenging activity; format: functional
[4] = Inhibition of H2O2-induced ROS production in human HaCaT cells; format: functional, cell-based
Mus musculus [5] = assay: Anxiolytic activity in mouse assessed as increase in time spent in open arm at 5 mg/kg, po measured after 60 mins by elevated plus maze test; format: functional; conditions: 1 h
Mus musculus [6] = assay: Anxiolytic activity in mouse assessed as number of entries in open arm at 5 mg/kg, po measured after 60 mins by elevated plus maze test; format: functional; conditions: 1 h
RAW264.7 [7] = assay: Antiinflammatory activity in mouse RAW264.7 cells assessed as reduction in LPS-induced nitric oxide production; format: functional, cell-based
CT26.WT = assay: Cytotoxicity against mouse CT26.WT cells by MTT assay; format: functional, cell-based
B16-F10 = assay: Cytotoxicity against mouse B16-F10 cells by MTT assay; format: functional, cell-based
CHO = assay: Cytotoxicity against CHO cells by MTT assay; format: functional, cell-based; conditions: Cricetulus griseus
MeWo = assay: Cytotoxicity against human MeWo cells by MTT assay; format: functional, cell-based
RAW264.7 [8] = assay: Antiinflammatory activity in mouse RAW 264.7 cells assessed as inhibition of LPS-induced nitric oxide production measured after 48 hrs by Griess reagent assay; format: functional, cell-based; conditions: RAW264.7, 48 h
Staphylococcus aureus [9] = assay: Antibacterial activity against Staphylococcus aureus ATCC 25923 assessed as inhibition of bacterial growth; format: functional, organism-based
Staphylococcus aureus [10] = assay: Antibacterial activity against Staphylococcus aureus ATCC 29213 assessed as inhibition of bacterial growth; format: functional, organism-based
Staphylococcus aureus [11] = assay: Antibacterial activity against Staphylococcus aureus ATCC 43300 assessed as inhibition of bacterial growth; format: functional, organism-based
K562 [12] = assay: Cytotoxicity against human K562 cells assessed as reduction in cell viability; format: functional, cell-based
HL-60 = assay: Cytotoxicity against human HL-60 cells assessed as reduction in cell viability; format: functional, cell-based; conditions: hl-60
A549 = assay: Cytotoxicity against human A549 cells assessed as reduction in cell viability; format: functional, cell-based
RAW264.7 [13] = assay: Antiinflammatory activity against mouse RAW264.7 cells assessed as inhibition of LPS-induced COX2 expression; format: functional, cell-based
Pichia kudriavzevii = assay: Antifungal activity against Candida krusei assessed as inhibition of fungal growth measured after 48 hrs by CLSI based agar dilution method; format: functional, organism-based
[14] = Antioxidant activity assessed as DPPH radical scavenging activity at 20 uM relative to control; format: functional
[15] = Antioxidant activity assessed as ABTS radical scavenging activity; format: functional
[16] = Antioxidant activity assessed as DPPH radical scavenging activity incubated for 30 mins by spectrophotometric analysis; format: functional

COc1cc(O)c2c(c1)CCc1cc(O)c(-c3c(OC)cc(O)c4c3ccc3cc(O)ccc34)cc1-2
IC50 [1]: 12.9 µg/mL

COc1cc(O)c2c(c1Cc1ccc(O)cc1)CCc1cc(O)ccc1-2
IC50 [1]: 12.2 µg/mL

COC1=CC(=O)c2ccc3cc(OC)cc(O)c3c2C1=O [DENBINOBIN]
IC50 (K562 [2]): 1.8 µM | IC50 (PC-3): 7.5 µM

COc1cc2c(cc1O)CCc1cc(O)cc(OC)c1-2
IC50 (BV-2): 19.4 µM | IC50 (HaCaT): 19.3 µM | IC50 ([1]; read-out: IC50): 9 µM | IC50 [3]: 0.04 µM | IC50 [4]: 9.4 µM

COc1cc(O)cc2cc(O)c3cccc(OC)c3c12
IC50 ([1]; read-out: IC50): 59.8 µM

COc1ccc(O)c(C(C)(C)C)c1.COc1ccc(O)cc1C(C)(C)C [BUTYLATED HYDROXYANISOLE]
IC50 [1]: 9.3 µg/mL

Oc1cc2c3c(c1)COc1cc(O)cc(c1-3)CC2
IC50 ([1]; read-out: IC50): 6.6 µM | IC50 [3]: 0.08 µM

COc1cc(O)cc2ccc3cccc(O)c3c12 [MOSCATIN]
IC50 ([1]; read-out: IC50): 9.2 µM

CN1C(=O)CN=C(c2ccccc2)c2cc(Cl)ccc21 [DIAZEPAM]
Time (Mus musculus [5]): 111.9 s | Activity (Mus musculus [6]): 13.6

COC(C)c1cc(O)cc2ccc3c(C)c(O)ccc3c12 (stereo not given)
IC50 (RAW264.7 [7]; Mus musculus, RAW264.7): 11.1 µM | IC50 (RAW264.7 [7]; raw264.7): 16.3 µM

O=c1[nH]cc(F)c(=O)[nH]1 [FLUOROURACIL]
IC50 (CT26.WT): 5 µg/mL (≈ 38.4 µM) | IC50 (B16-F10): 4 µg/mL (≈ 30.8 µM) | IC50 (CHO): 12 µg/mL (≈ 92.3 µM) | IC50 (MeWo): 8 µg/mL (≈ 61.5 µM)

COc1cc(O)c2c(c1)CCc1c-2ccc(OC)c1O
EC50 [1]: 27.7 µM | IC50 ([1]; read-out: IC50): 27.7 µM

Oc1ccc2c(c1)CCc1cc(O)cc(O)c1-2
IC50 ([1]; read-out: IC50): 16.2 µM

C=Cc1cc(O)cc2c1-c1cc(-c3c(O)cc(C=C)c4c3ccc3c(C)c(O)ccc34)c(O)c(C)c1CC2
IC50 (RAW264.7 [7]; Mus musculus, RAW264.7): 7.4 µM

COc1cc(O)cc2c1-c1ccc(O)cc1CC2
IC50 ([1]; read-out: IC50): 16.7 µM and 8.5 µM | IC50 [3]: 0.08 µM

COc1cc(O)c2c(c1)CCc1cccc(O)c1-2
EC50 [1]: 10 µM | IC50 ([1]; read-out: IC50): 21.4 µM

COc1c(O)cc2ccc3c(OC)c(O)ccc3c2c1OC
IC50 ([1]; read-out: IC50): 12.9 µM

CNC(=N)NCCC[C@H](N)C(=O)O [TILARGININE]
IC50 (BV-2): 16.3 µM

Cc1c(C)c2c(c(C)c1O)CCC(C)(C(=O)O)O2 (stereo not given) [TROLOX]
IC50 ([1]; read-out: IC50): 11.7 µM

C=Cc1c(C)c(O)cc2c1ccc1c(C)c(O)ccc12
IC50 (RAW264.7 [8]): 3.2 µM

COc1c(O)cc2c3c1COc1cc(O)cc(c1-3)CC2
IC50 (HaCaT): 12.2 µM | EC50 [1]: 8.8 µM | IC50 ([1]; read-out: IC50): 8.4 µM | IC50 [3]: 0.03 µM | IC50 [4]: 8.8 µM

COc1cc(O)c(-c2c(O)cc(OC)c3c2ccc2cc(O)ccc23)c2ccc3cc(O)ccc3c12 [CIRRHOPETALANTHIN]
IC50 (Staphylococcus aureus [9]): 6.25 µg/mL (≈ 13.1 µM) | IC50 (Staphylococcus aureus [10]): 6.25 µg/mL (≈ 13.1 µM) | IC50 (Staphylococcus aureus [11]): 6.25 µg/mL (≈ 13.1 µM)

COc1cc(O)c2c(c1)CCc1cc(O)ccc1-2 [LUSIANTHRIDIN]
IC50 (RAW264.7 [8]): 4.6 µM | EC50 [1]: 22.3 µM | IC50 ([1]; read-out: IC50): 62.2 µM and 22.3 µM

COc1cc(O)c2c(c1)CCc1cc(-c3cc(OC)c4c(c3O)CCc3cc(O)ccc3-4)c(O)cc1-2
IC50 (K562 [12]): 6.1 µM | IC50 (HL-60): 1.3 µM | IC50 (A549): 9.2 µM

COc1cc(OC)c2c(ccc3cc(OC)c(O)cc32)c1
IC50 (RAW264.7 [13]): 1.8 µM

COc1cc2c(c(O)c1C)CCc1c-2ccc(O)c1C=O
IC50 (CT26.WT): 4 µg/mL (≈ 14.1 µM) | IC50 (B16-F10): 8 µg/mL (≈ 28.1 µM) | IC50 (CHO): 6 µg/mL (≈ 21.1 µM) | IC50 (MeWo): 5 µg/mL (≈ 17.6 µM) | IC50 (Pichia kudriavzevii): 31.3 µg/mL (≈ 110 µM)

N=C(N)NN [PIMAGEDINE]
IC50 ([1]; read-out: IC50): 21.7 µM

O=C1O[C@H]([C@@H](O)CO)C(O)=C1O [ASCORBIC ACID]
Activity [14]: 2.9% | Activity [15]: 88.7% | IC50 ([1]; read-out: IC50): 18 µM | IC50 [16]: 0.41 µM

C=Cc1ccc(CO)c2c1-c1ccc(O)c(C)c1CC2
IC50 (RAW264.7 [7]; Mus musculus, RAW264.7): 14.4 µM
